These results are taken from paper PMC4428838, “Optimization of Invasion-Specific Effects of Betulin Derivatives on Prostate Cancer Cells through Lead Development” (PLoS ONE, 2015).

Assay type in all cases: cell-based
The test system of one experiment is LNCaP. Briefly: Proliferation assay in 2D monolayer culture (number of nuclei, Operetta high-content imager, 72 h). As to conditions: Homo sapiens, Harmony software, no unit in the table, μM, read-out: Estimated EC50 values for cell proliferation, LNCaP. Here is the method:
(§1) To rule out that cytotoxic and antimitotic effects were misinterpreted as anti-invasive, we tested compounds 4, 5, 6, 19 and 20 for inhibition of proliferation and induction of cell death in a 2D monolayer culture (summarized in Fig 6). […] LNCaP cells were more sensitive, with growth inhibition/cytotoxicity starting at 3 μM. The effects on non-transformed, apoptosis-sensitive Ep156T cells were strongest. Here, cytotoxic effects were typically observed already at 0.3–1 μM. […] We further calculated EC50 values for proliferation, apoptosis and cell death for each compound, using the PerkinElmer Harmony software (method validation shown in S7 Fig). The only assay that produced results consistent with those of the betulin derivatives tested in the 2D cell culture model was the proliferation assay (Table 1).
(§2) Fig 6 Cytotoxicity tests performed in 2D monolayer culture. A) Cell proliferation/cell number, B) programmed cell death (apoptosis), and C) number of dead cells were assessed by conventional assays, combined with high-content microscopy (Operetta). […] Proliferation was measured as the total number of nuclei (= cells), apoptosis as ratio of caspase-3 positive versus all cells, and cell death as ethidium homodimer-2 positive nuclei versus all cells.
(§3) Cells were transferred into CellCarrier 384-well plates (PerkinElmer, Waltham, MA, USA) at a density of 1250 cells/well, using Multidrop dispenser (ThermoFisher Scientific, Waltham, MA, USA). After overnight incubation at 37°C experimental, compounds were added with an ATS Acoustic Transfer System (EDC Biosystems, Fremont, CA, USA). For Ep156T cells the protocol was done in reverse with compounds dispensed before seeding of cells. Fluorescent markers were dispensed in culture medium using ATS system after 72-h compound exposure. Nuclei were stained with cell-permeable Hoechst 33342 (Molecular Probes, Eugene, OR, USA), dead cells with ethidium homodimer-2 (Invitrogen, Carlsbad, CA, USA) and apoptotic cells with NucView caspase-3 detection reagent (Essen Bioscience, Ann Arbor, MI, USA). Cells were imaged with Operetta high-content imager (PerkinElmer, Waltham, MA, USA). Proliferation was measured from the number of nuclei (cells), cell death and apoptosis from positive cells/total cells ratio using Harmony image analysis software (PerkinElmer, Waltham, MA, USA). EC50 values were also assessed with the Harmony software.

Another experiment deals with EP156T. The experiment is described as above. As to conditions: Harmony software, no unit in the table, μM, read-out: Estimated EC50 values for cell proliferation, EP156T. Here is the method:
as §1, with “6). A broad range of compound concentrations (1 nM to 30 μM) were used for PC-3, LNCaP and Ep156T cell lines, and analyzed with the PerkinElmer Operetta high-content imager.” for “6).”
as §2, §3

Another experiment relates to PC-3 cells. Briefly: Primary 3D screen in Matrigel ECM, morphometric image analysis (AMIDA) of invasion, growth and cell death. As to conditions: for anti-invasive effects in 3D culture (in words): 0.03-1 μM; for concentration suppressing the invasive transformation (roundness %): PC-3 spheroids, over 6 days. As to the method:
Three standard of care compounds widely used against PrCa were added as controls; namely, the androgen receptor antagonist enzalutamide (MDV3100), the C17α-hydroxylase/C17,20-lyase inhibitor abiraterone (Zytiga), and the classic mitotic inhibitor paclitaxel. Treatments started at day 4, when well-differentiated round acini were established.
The live 3D cell cultures were then stained with reactive dyes Calcein AM to detect living, and ethidium homodimer to detect dead cells. Images (Fig 4A) were acquired with confocal microscope and image data were analyzed with the AMIDA software. The principles of morphometric image analysis are briefly outlined in S2 Fig.
Fig 4 Primary 3D screen. PC-3 cells were cultured in 3D Matrigel ECM for 4 days and treated for 6 days with 25 betulin derivatives (from 2D high throughput screens), DMSO/vehicle control, and three reference compounds. A) Representative maximum intensity projections of confocal microscope stack images for selected compound treatments at 300 nM concentration (5× objective, scale 100 μm). B) Three graphs showing the relative impact on three morphometric parameters for 7 betulin derivatives, DMSO control, and one control compound (paclitaxel). […] C) Hierarchical clustering was done using three morphological parameters derived from PC3 organoids: spheroid size (area), complexity and the number of dead cells. D) Wound healing curves of the two betulin derivatives 4 and 20, highlighting the 50% cut-off level (orange dashed line).
Next, statistical analyses were performed to interpret the complex image data (Fig 4B and 4C). For simplicity, we focused on only three, basic morphologic parameters from the multiparametric AMIDA readout (Fig 4B): 1) Area (indicating growth of organoids), 2) structural Complexity (as a measure of the intensity of invasion), and 3) Relative Area of dead cells within organoids (red signal as a measure of cytoxicity or apoptosis). Area (Size of organoids; Fig 4B, upper panel) was measured as the number of pixels within a segmented structure. […] Shape Complexity (Fig 4B, middle panel) was obtained using the structure size (area) and perimeter (number of border pixels). The more regular the shape of an organoid, the closer it is to a perfect circle, thus minimizing the perimeter relative to object size. […] Deviations from this average (residuals) were interpreted as a measure for the shape complexity of organoids. As a logical lower limit for this measure (represented by a perfect circle), we adjusted the intercept (height level) of the regression line to render all returned residuals as positive numbers.
All 3D cultures were done in growth factor-free Matrigel Basement-membrane Matrix (Corning Inc., New York, NY, USA) using 96-well Angiogenesis μ-plates (ibidi GmbH, Munich, Germany) as described before.[38] “Sandwich” assays in short: bottom wells of cooled Angiogenesis plates were filled with 10 μL 4 mg/mL Matrigel, centrifuged for 20 min 200 g and incubated at 37°C temperature for approximately 30–60 min or until the ECM had polymerized. 1,000–1,500 cells were mixed in 2 mg/mL ECM-medium, and 20 μL of cell suspension was added in each well. The plates were centrifuged for 10 min at 100 g, or until the cells had settled on top of the lower ECM. Finally, the outer wells and side reservoirs were filled with water for humidification, and the culture plates placed into the incubator for 3–4 h or overnight. The following day, 60 μL of cell culture medium were added; refreshed every third day by carefully aspirating the medium.

In another experiment the test system is PC-3. Put plainly: cells. Conditions: Homo sapiens, PC-3; 2D monolayer, 72 h, Harmony software; no unit in the table, μM; read-out: Estimated EC50 values for cell proliferation, PC-3. Here is the method:
as §1, §2, §3

Setting [1] is: PC-3 in 3D Matrigel, 6 days treatment.

For `C=C(C)[C@@H]1CC[C@]2(C(=O)O)CC[C@]3(C)C(CCC4[C@@]5(C)Cc6ncccc6C(C)(C)C5CC[C@]43C)C12` (stereo partly shown) [Compound 20], the EC50 in the experiment with LNCaP is 132 µM; with EP156T, 0.19 µM; with PC-3, 66.9 µM. Moreover, the “anti-invasive effects in 3D culture (in words)” value in the experiment on PC-3 cells (setting [1]) is reported as “potently anti-invasive at significantly lower concentrations”. For the same compound, in the experiment on PC-3 cells, the “concentration suppressing the invasive transformation (roundness %)” value is listed as “over 300 nM”.

As for `C=C(C)[C@@H]1CC[C@]2(C(=O)O)CC[C@]3(C)C(CCC4[C@@]5(C)Cc6cccnc6C(C)(C)C5CC[C@]43C)C12` (stereo partly shown) [Compound 19], the EC50 with LNCaP was 0.9 µM; in the experiment with EP156T, 0.18 µM; in the experiment with PC-3, 86.9 µM. Also, the “anti-invasive effects in 3D culture (in words)” value with PC-3 cells (setting [1]) is given as “potently anti-invasive at significantly lower concentrations”.

Turning to `C=C(C)[C@@H]1CC[C@]2(C(=O)O)CC[C@]3(C)C(CCC4[C@@]5(C)Cc6cnoc6C(C)(C)C5CC[C@]43C)C12` (stereo partly shown) [Compound 5], the EC50 was 64.6 µM with LNCaP, 0.22 µM in the experiment on EP156T and 9.5 µM in the experiment on PC-3. The “concentration at which anti-invasive effects are seen in 3D” value in the experiment on PC-3 cells (setting [1]) stood at 300 nM. In addition, the “concentration suppressing the invasive transformation (roundness %)” value in the experiment with PC-3 cells was “over 300 nM”.

On to `C=C(C)[C@@H]1CC[C@]2(C(=O)O)CC[C@]3(C)C(CCC4[C@@]5(C)Cc6c[nH]nc6C(C)(C)C5CC[C@]43C)C12` (stereo partly shown) [Compound 6], for which the values for the EC50 with LNCaP, in the experiment on EP156T and with PC-3 were 6.4 µM, 0.21 µM and 90.8 µM, respectively. The “anti-invasive effects in 3D culture (in words)” value with PC-3 cells (setting [1]) is “even more potent and proved to be specifically anti-invasive”.

`CC(C)[C@@H]1CC[C@]2(C(=O)O)CC[C@]3(C)C(CCC4[C@@]5(C)Cc6cnoc6C(C)(C)C5CC[C@]43C)C12` (stereo partly shown) [Compound 4]: the values for the EC50 in the experiment on LNCaP, with EP156T and with PC-3 were 93.1 µM, 0.2 µM and 55.9 µM, respectively.

On to `CC(=O)O[C@H]1C(=O)[C@@]2(C)[C@H]([C@H](OC(=O)c3ccccc3)[C@]3(O)C[C@H](OC(=O)[C@H](O)[C@@H](NC(=O)c4ccccc4)c4ccccc4)C(C)=C1C3(C)C)[C@]1(OC(C)=O)CO[C@@H]1C[C@@H]2O` [Paclitaxel, paclitaxel, reference compound], for which the EC50 in the experiment on LNCaP was 0.0006 µM; in the experiment with EP156T, 0.0008 µM; in the experiment with PC-3, 0.0012 µM. Further, the “effect on morphometric measures (area, complexity, dead cells)” value with PC-3 cells (PC-3 in 3D Matrigel, paclitaxel at 30 and 100 nM) is recorded as “strong effect on all morphometric measures”.
